Data taken from paper PMC10585379, “Hydrophobic moment drives penetration of bacterial membranes by transmembrane peptides” (The Journal of Biological Chemistry, 2023).
Values after ≈ are worked out from the molar mass of the structure shown. Where a SMILES comes first, the peptide text is derived from it. [ ]: non-standard residue; d: D form. Sar = CNCC(=O)O

What was measured:
E. coli K12 [1] = format: cell-based, Escherichia coli; conditions: E. coli K12, Mueller-Hinton broth, 50,000 CFU/well, up to 64 μM peptide, 37 °C, 20 h, OD 600 nm; concentration giving >99% reduction in growth; mean and standard deviation of the mean
Method: Overnight cultures of E. coli K-12 grown in Mueller-Hinton broth were incubated at 50,000 CFU/well with up to 64 μM of peptide in 96-well plates (Corning, Ref 3598). Plates were then incubated at 37 °C for 20 h, after which the optical density (OD) was measured at 600 nm. Minimum inhibitory concentration (MIC) was determined as the peptide concentration resulting in >99% reduction in growth.

E. coli K12 [2] = format: cell-based, Escherichia coli; conditions: E. coli K12 in M9 minimal media, 30 μM DiOC2(3) 5 min, 20 μM CCCP or 8 μM peptide, 37 °C, up to 180 min, ex 450/em 510 nm; duplicate, three independent days
Method: Overnight cultures of E. coli K12 grown in Luria-Bertani (LB) broth were pelleted and resuspended to an OD600 of 0.4 in M9 minimal media. Cultures were grown at 37 °C for 30 min prior to being incubated with 10 mM EDTA for 5 min. Cultures were pelleted again and resuspended in fresh M9 minimal media to remove EDTA before the addition of 30 μM 3,3′-diethyloxacarbocynanine iodide (DiOC2 ([3]); Invitrogen). […] Fluorescence was measured immediately at 37 °C every 3 min for up to 3 h using a SpectraMax Gemini EM microplate reader set to 450 nm excitation and 510 nm emission wavelengths. Fluorescence curves were normalized to wells containing only dye and then plotted and analyzed using GraphPad Prism 9. Data at 15-min intervals are presented as mean and standard deviation of the mean for ease of visualization. Experiments were performed in duplicate and repeated on three independent days.

[3] = Tryptophan quenching assay with dibrominated lipid LUVs; format: physicochemical; conditions: 5 μM peptide or BSA, peptide-to-lipid ratio of 62.5, 0-30% brominated lipid, Stern-Volmer plot; mean of three independent analyses
Method: Large unilamellar vesicles (LUVs) were prepared using methods previously described ([14]). Briefly, 1-palmitoyl-2-oleoyl-sn-glycero-3-phosphoethanolamine (POPE) and 1-palmitoyl-2-oleoyl-sn-glycero-3-phospho-(1′-rac-glycerol) (POPG) (Avanti Polar Lipids) were combined in a 3:1 ratio, respectively, in chloroform and dried to a film before water washing and lyophilizing into a powder. This powder was resuspended in Tris-Cl buffer (10 mM Tris, 10 mM NaCl, pH 7), freeze-thawed 5× (dry ice – 50 °C water bath) and extruded through a mini-extruder fitted with a 0.2 μm Whatman Nuclepore polycarbonate membrane filter (Cytiva) at least 15× to form LUVs. Where applicable, 1-palmitoyl-2-(6,7-dibromo)stearoyl-sn-glycero-3-phosphocholine (PC-Br ([6], [7])) or 1-palmitoyl-2-(11,12-dibromo)stearoyl-sn-glycero-3-phosphocholine (PC-Br ([11], [12])) (Avanti Polar Lipids) were substituted for POPE at the given percentages and incorporated into LUVs as described.
Brominated lipid-containing LUVs (0%, 10%, 20%, and 30%) were combined with 5 μM peptide and tryptophan emission fluorescence was recorded from 300 to 400 nm using a 280 nm excitation wavelength. Fluorescence spectra were plotted and the area under the curve was used to generate a Stern-Volmer plot of initial fluorescence/quenched fluorescence (Fo/F) against percentage brominated lipid. […]

[4] = Circular dichroism, peptide secondary structure; format: physicochemical; conditions: 20 μM peptide, 10 mM Tris-Cl, 10 mM NaCl, pH 7, minima at 208 and 222 nm, average of three independent analyses
Method: Circular dichroism (CD) spectra of peptides were recorded between 190 and 250 nm on a Jasco J-1500 CD spectropolarimeter using a 0.1 cm pathlength quartz cuvette, scanning at […] with three accumulations. Peptide spectra were acquired in either water, 20% acetonitrile, 140 mM sodium dodecyl sulfate (SDS), or 3:1 POPE:POPG, in buffer (10 mM Tris-Cl, 10 mM NaCl, pH 7), at a constant peptide concentration of 20 μM and then plotted using GraphPad Prism 9. Data are presented from 200 to 250 nm for ease of visualization. Raw millidegree (mdeg) spectra were background subtracted and converted to mean residue ellipticity (MRE) using Equation 1 below, where c is the concentration in μM, l is the pathlength in cm, and n is the number of residues.(1) MRE=100(mdeg)/cln
Using the MRE value at 222 nm, the peptide helical percentage was estimated using Equation 2 below ([45], [46]), where MRE222 is the MRE value at 222 nm and n is the number of peptide bonds.(2) %Helix=100(MRE222/(−39,500(1−2.57/n)))

Compound | MIC (E. coli K12 [1]) [µM] | Dissipation of the proton motive force (DiOC2(3) RFU) (E. coli K12 [2]) | Tryptophan fluorescence quenching by PC-Br(11,12)-containing LUVs (depth of insertion) [3] | Peptide secondary structure in the aqueous phase (CD) [4]
CC[C@H](C)[C@H](NC(=O)CN)C(=O)NCC(=O)N[C@@H](C)C(=O)N[C@H](C(=O)N[C@@H](CC(C)C)C(=O)N[C@@H](CCCCN)C(=O)N[C@H](C(=O)N[C@@H](CC(C)C)C(=O)N[C@H](C(=O)N[C@H](C(=O)NCC(=O)N[C@@H](CC(C)C)C(=O)N1CCC[C@H]1C(=O)N[C@@H](C)C(=O)N[C@@H](CC(C)C)C(=O)N[C@H](C(=O)N[C@@H](CO)C(=O)N[C@@H](Cc1c[nH]c2ccccc12)C(=O)N[C@H](C(=O)N[C@@H](CCCCN)C(=O)N[C@@H](CCCNC(=N)N)C(=O)N[C@@H](CCCCN)C(=O)N[C@@H](CCCNC(=N)N)C(=O)N[C@@H](CCC(N)=O)C(=O)N[C@@H](CCC(N)=O)C(N)=O)[C@@H](C)CC)[C@@H](C)CC)[C@@H](C)O)[C@@H](C)O)C(C)C)C(C)C [Melittin, reference compound] | 5 ± 2 (≈ 14.2 µg/mL) |  |  | 
CC[C@H](C)[C@H](NC(=O)[C@H](C)NC(=O)[C@H](CC(C)C)NC(=O)CNC(=O)CNC(=O)[C@H](C)NC(=O)[C@H](CC(C)C)NC(=O)[C@H](CCSC)NC(=O)[C@@H](NC(=O)[C@@H](NC(=O)[C@@H](NC(=O)[C@H](C)NC(=O)[C@@H](NC(=O)[C@@H](NC(=O)[C@H](Cc1c[nH]c2ccccc12)NC(=O)[C@H](C)NC(=O)[C@H](Cc1ccccc1)NC(=O)[C@@H](NC(=O)[C@@H]1CCCN1C(=O)CN(C)C(=O)CN(C)C(=O)CN(C)C(=O)[C@H](C)NC(C)=O)[C@@H](C)CC)C(C)C)[C@@H](C)CC)[C@@H](C)CC)[C@@H](C)CC)[C@@H](C)CC)C(=O)N[C@@H](CC(C)C)C(=O)N[C@@H](CCCCN)C(=O)N[C@@H](CC(C)C)C(=O)N[C@@H](CCCCN)C(=O)N[C@@H](CCCCN)C(=O)N[C@@H](CCCCN)C(=O)N[C@@H](CCCCN)C(N)=O [TM1-1] (Ac-A[Sar][Sar][Sar]PIFAWVIAIIIMLAGGLAILKLKKKK-NH2) | >64 | re-establish the PMF back in the range of untreated cultures |  | 
CC[C@H](C)[C@H](NC(=O)[C@H](C)NC(=O)[C@@H](NC(=O)[C@H](CC(C)C)NC(=O)[C@@H](NC(=O)[C@H](Cc1c[nH]c2ccccc12)NC(=O)CNC(=O)[C@H](C)NC(=O)[C@H](CCSC)NC(=O)[C@H](C)NC(=O)CNC(=O)[C@H](Cc1ccccc1)NC(=O)[C@@H](NC(=O)[C@H](CC(C)C)NC(=O)[C@H](CC(C)C)NC(=O)[C@@H](NC(=O)[C@@H]1CCCN1C(=O)[C@@H](NC(=O)CN(C)C(=O)CN(C)C(=O)CN(C)C(=O)[C@H](C)NC(C)=O)C(C)C)[C@@H](C)CC)[C@@H](C)CC)[C@@H](C)CC)[C@@H](C)CC)C(=O)N[C@H](C(=O)N[C@@H](C)C(=O)N[C@@H](CCCCN)C(=O)N[C@@H](CC(C)C)C(=O)N[C@@H](CCCCN)C(=O)N[C@@H](CCCCN)C(=O)N[C@@H](CCCCN)C(=O)N[C@@H](CCCCN)C(N)=O)[C@@H](C)CC [TM1-2] (Ac-A[Sar][Sar][Sar]VPILLIFGAMAGWILIAIIAKLKKKK-NH2) | >64 | re-establish the PMF back in the range of untreated cultures |  | 
CC[C@H](C)[C@H](NC(=O)CNC(=O)[C@H](CC(C)C)NC(=O)[C@H](Cc1c[nH]c2ccccc12)NC(=O)[C@H](C)NC(=O)[C@@H](NC(=O)[C@@H](NC(=O)[C@H](CCSC)NC(=O)[C@@H](NC(=O)[C@H](C)NC(=O)[C@H](Cc1ccccc1)NC(=O)[C@H](C)NC(=O)[C@H](CC(C)C)NC(=O)[C@H](CC(C)C)NC(=O)CNC(=O)[C@@H]1CCCN1C(=O)[C@@H](NC(=O)CN(C)C(=O)CN(C)C(=O)CN(C)C(=O)[C@H](C)NC(C)=O)C(C)C)[C@@H](C)CC)[C@@H](C)CC)[C@@H](C)CC)C(=O)N[C@@H](C)C(=O)N[C@H](C(=O)N[C@H](C(=O)N[C@@H](CCCCN)C(=O)N[C@@H](CC(C)C)C(=O)N[C@@H](CCCCN)C(=O)N[C@@H](CCCCN)C(=O)N[C@@H](CCCCN)C(=O)N[C@@H](CCCCN)C(N)=O)[C@@H](C)CC)[C@@H](C)CC [TM1-3] (Ac-A[Sar][Sar][Sar]VPGLLAFAIMIIAWLGIAIIKLKKKK-NH2) | >64 |  | penetrate deeper into the lipid bilayer | 
CC[C@H](C)[C@H](NC(=O)[C@H](C)NC(=O)[C@H](CCSC)NC(=O)[C@H](C)NC(=O)[C@@H](NC(=O)[C@H](Cc1ccccc1)NC(=O)CNC(=O)[C@H](CC(C)C)NC(=O)[C@H](CC(C)C)NC(=O)CNC(=O)[C@@H]1CCCN1C(=O)[C@@H](NC(=O)CN(C)C(=O)CN(C)C(=O)CN(C)C(=O)[C@H](C)NC(C)=O)C(C)C)[C@@H](C)CC)C(=O)N[C@@H](Cc1c[nH]c2ccccc12)C(=O)N[C@H](C(=O)N[C@@H](CC(C)C)C(=O)N[C@H](C(=O)N[C@@H](C)C(=O)N[C@H](C(=O)N[C@H](C(=O)N[C@@H](C)C(=O)N[C@@H](CCCCN)C(=O)N[C@@H](CC(C)C)C(=O)N[C@@H](CCCCN)C(=O)N[C@@H](CCCCN)C(=O)N[C@@H](CCCCN)C(=O)N[C@@H](CCCCN)C(N)=O)[C@@H](C)CC)[C@@H](C)CC)[C@@H](C)CC)[C@@H](C)CC [TM1-4] (Ac-A[Sar][Sar][Sar]VPGLLGFIAMAIWILIAIIAKLKKKK-NH2) | >64 |  | penetrate deeper into the lipid bilayer | strongest helix
carbonyl cyanide m-chlorophenylhydrazine [CCCP, reference compound] |  | immediate increase in RFU |  | 
